According to patent US10087148B2, “Quinazolines as biogenic amine transport modulators” (THE UNITED STATES OF AMERICA AS REPRESENTED BY THE …, priority 2014, dated 2018):
Entries after “also recorded” stand apart in the source; their conditions may differ.

Assays:
Assay type in all cases: biochemical
[1] = target: serotonin transporter (SERT) (Rattus norvegicus (Rat), UniProt P31652); assay: [3H]serotonin (5-HT) uptake inhibition in rat brain synaptosomes; details: mean ± S.D.; n = 3
Description: Uptake inhibition assay for the serotonin transporter was conducted in rat brain synaptosomes as described elsewhere with minor modifications (Rothman et al., Synapse 39, 32-41 (2001)). Freshly removed whole brain minus cerebellum and caudate was homogenized in 10% ice-cold sucrose with 12 strokes of a hand-held Potter-Elvehjem homogenizer followed by centrifugation at 1000×g for 10 min. The supernatants were saved on ice and used immediately. Transporter activity at SERT was assessed using 5 nM [^3H]serotonin. The assay buffer was Krebs-phosphate buffer containing 154.4 mM NaCl, 2.9 mM KCl, 1.1 mM CaCl2, 0.83 mM MgCl2, 5 mM glucose, 1 mg/mL ascorbic acid, and 50 μM pargyline. […] Uptake inhibition assays were conducted at 25° C. and were initiated by adding 100 μL of tissue to 900 μL assay buffer containing test drug and [^3H]serotonin. Test drugs were diluted in assay buffer containing 1 mg/mL bovine serum albumin. Nonspecific uptake was measured by incubating in the presence of 10 μM indatraline. The reactions were stopped after 30 min by rapid vacuum filtration with a cell harvester (BRANDEL) over GF/B filters (Whatman) presoaked in wash buffer maintained at 25° C. (10 mM Tris-HCl, pH 7.4/150 mM NaCl). Filters were rinsed with 6 mL wash buffer and retained tritium was quantified by a MicroBeta liquid scintillation counter (PerkinElmer) after overnight extraction in 0.6 mL of liquid scintillation cocktail (Cytoscint, ICN). The data from three experiments were pooled and fit to a dose-response curve equation (using Kaleidagraph), to yield an Emax and EC50 value.

[2] = target: norepinephrine transporter (NET) (Rattus norvegicus, UniProt Q63380); assay: [3H]norepinephrine (NE) uptake inhibition in rat brain synaptosomes; details: mean ± S.D.; n = 3
Description: Uptake inhibition assay for the norepinephrine transporter was conducted in rat brain synaptosomes as described elsewhere with minor modifications (Rothman et al., Synapse 39, 32-41 (2001)). Freshly removed whole brain minus cerebellum and caudate was homogenized in 10% ice-cold sucrose with 12 strokes of a hand-held Potter-Elvehjem homogenizer followed by centrifugation at 1000×g for 10 minutes. The supernatants were saved on ice and used immediately. Transporter activity at NET was assessed using 10 nM [^3H]norepinephrine. The assay buffer was Krebs-phosphate buffer containing 154.4 mM NaCl, 2.9 mM KCl, 1.1 mM CaCl2, 0.83 mM MgCl2, 5 mM glucose, 1 mg/mL ascorbic acid, and 50 μM pargyline. […] Uptake inhibition assays were conducted at 37° C. and were initiated by adding 100 μL of tissue to 900 μL assay buffer containing test drug and [^3H]norepinephrine. Test drugs were diluted in assay buffer containing 1 mg/mL bovine serum albumin. Nonspecific uptake was measured by incubating in the presence of 10 μM indatraline. The reactions were stopped after 10 minutes by rapid vacuum filtration with a cell harvester (BRANDEL) over GF/B filters (Whatman) presoaked in wash buffer maintained at 25° C. (10 mM Tris-HCl, pH 7.4/150 mM NaCl). Filters were rinsed with 6 mL wash buffer and retained tritium was quantified by a MicroBeta liquid scintillation counter (PerkinElmer) after overnight extraction in 0.6 mL of liquid scintillation cocktail (Cytoscint, ICN). The data from three experiments were pooled and fit to a dose-response curve equation (using Kaleidagraph), to yield an Emax and EC50 value.

[3] = target: dopamine transporter (DAT) (Rattus norvegicus (Rat), UniProt P23977); assay: [3H]dopamine (DA) uptake inhibition in rat brain (caudate) synaptosomes; details: for DA Uptake Emax / EC50: rat caudate synaptosomes, 5 nM [3H]dopamine, mean ± SD; for One-Site Emax / Two-Site Emax-1 / Two-Site Emax-2: [3H]DA uptake; for One-Site Emax: one-component fit; for Two-Site Emax-1 / Two-Site Emax-2: two-component fit; for Two-Site Emax-1: component 1; for Two-Site Emax-2: component 2
Description: Uptake inhibition assay for the dopamine transporter was conducted in rat brain synaptosomes as described elsewhere with minor modifications (Rothman et al., Synapse 39, 32-41 (2001)). Freshly removed caudate was homogenized in 10% ice-cold sucrose with 12 strokes of a hand-held Potter-Elvehjem homogenizer followed by centrifugation at 1000×g for 10 min. The supernatants were saved on ice and used immediately. Transporter activity was assessed using 5 nM [^3H]dopamine. The assay buffer was Krebs-phosphate buffer containing 154.4 mM NaCl, 2.9 mM KCl, 1.1 mM CaCl2, 0.83 mM MgCl2, 5 mM glucose, 1 mg/mL ascorbic acid, and 50 μM pargyline. The selectivity of the uptake assay for DAT was optimized by including 100 nM citalopram and 100 nM desipramine as blockers of SERT and NET in the sucrose solution and assay buffer. Uptake inhibition assays were conducted at 25° C. and were initiated by adding 100 μl of tissue to 900 μL assay buffer containing test drug and [^3H]dopamine. Test drugs were diluted in assay buffer containing 1 mg/mL bovine serum albumin. Nonspecific uptake was measured by incubating in the presence of 10 μM indatraline. The reactions were stopped after 15 minutes by rapid vacuum filtration with a cell harvester (BRANDEL) over GF/B filters (Whatman) presoaked in wash buffer maintained at 25° C. (10 mM Tris-HCl, pH 7.4/150 mM NaCl). Filters were rinsed with 6 mL wash buffer and retained tritium was quantified by a MicroBeta liquid scintillation counter (PerkinElmer) after overnight extraction in 0.6 mL of liquid scintillation cocktail (Cytoscint, ICN). The data from three experiments were pooled and fit to a dose-response curve equation (using Kaleidagraph), to yield an Emax and EC50 value.
All of the test compounds were synthesized as described herein. Next, 8-point dose-response curves were generated for each compound (1-20,000 nM) in the [^3H]DA uptake assay. The data from three experiments were pooled and fit to a dose-response curve equation (using KaleidaGraph; Synergy Software, Reading, Pa.) to yield an Emax and IC50 value. […] Selected compounds were also tested for their ability to inhibit [^3H]WIN35428 binding to rat caudate DAT.

Sequence of dopamine transporter (DAT) (P23977 whole entry): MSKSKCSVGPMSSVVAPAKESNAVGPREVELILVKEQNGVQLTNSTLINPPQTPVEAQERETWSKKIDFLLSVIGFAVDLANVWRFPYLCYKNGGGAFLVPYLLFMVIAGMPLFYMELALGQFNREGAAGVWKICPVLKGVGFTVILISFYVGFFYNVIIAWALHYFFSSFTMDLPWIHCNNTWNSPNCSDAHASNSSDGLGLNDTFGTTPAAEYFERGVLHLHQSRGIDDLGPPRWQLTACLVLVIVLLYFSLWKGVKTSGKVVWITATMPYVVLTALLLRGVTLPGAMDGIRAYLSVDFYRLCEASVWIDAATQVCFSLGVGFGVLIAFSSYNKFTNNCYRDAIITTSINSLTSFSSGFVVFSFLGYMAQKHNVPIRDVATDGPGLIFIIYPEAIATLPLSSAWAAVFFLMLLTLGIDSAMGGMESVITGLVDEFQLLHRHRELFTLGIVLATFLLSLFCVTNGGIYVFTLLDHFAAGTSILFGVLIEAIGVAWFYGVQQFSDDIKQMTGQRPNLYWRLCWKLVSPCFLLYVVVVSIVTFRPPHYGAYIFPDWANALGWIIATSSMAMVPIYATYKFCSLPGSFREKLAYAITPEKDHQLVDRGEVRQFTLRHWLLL
Sequence of norepinephrine transporter (NET) (Q63380 1-617): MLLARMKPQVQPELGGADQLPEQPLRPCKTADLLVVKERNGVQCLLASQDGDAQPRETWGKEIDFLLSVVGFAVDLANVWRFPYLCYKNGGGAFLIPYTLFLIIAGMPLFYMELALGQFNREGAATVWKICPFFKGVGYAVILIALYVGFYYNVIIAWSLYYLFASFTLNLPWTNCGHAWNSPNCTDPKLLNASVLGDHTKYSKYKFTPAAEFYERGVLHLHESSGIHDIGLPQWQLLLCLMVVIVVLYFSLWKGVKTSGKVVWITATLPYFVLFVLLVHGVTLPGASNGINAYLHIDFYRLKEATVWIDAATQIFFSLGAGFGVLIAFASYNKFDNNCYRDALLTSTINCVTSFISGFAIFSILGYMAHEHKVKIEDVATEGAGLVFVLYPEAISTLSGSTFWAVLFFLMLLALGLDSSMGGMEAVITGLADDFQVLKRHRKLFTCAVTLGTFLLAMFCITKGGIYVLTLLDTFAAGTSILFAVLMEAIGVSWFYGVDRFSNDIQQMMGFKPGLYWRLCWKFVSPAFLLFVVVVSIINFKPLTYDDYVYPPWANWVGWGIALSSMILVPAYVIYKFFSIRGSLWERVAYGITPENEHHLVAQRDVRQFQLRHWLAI
Sequence of serotonin transporter (SERT) (P31652 whole entry): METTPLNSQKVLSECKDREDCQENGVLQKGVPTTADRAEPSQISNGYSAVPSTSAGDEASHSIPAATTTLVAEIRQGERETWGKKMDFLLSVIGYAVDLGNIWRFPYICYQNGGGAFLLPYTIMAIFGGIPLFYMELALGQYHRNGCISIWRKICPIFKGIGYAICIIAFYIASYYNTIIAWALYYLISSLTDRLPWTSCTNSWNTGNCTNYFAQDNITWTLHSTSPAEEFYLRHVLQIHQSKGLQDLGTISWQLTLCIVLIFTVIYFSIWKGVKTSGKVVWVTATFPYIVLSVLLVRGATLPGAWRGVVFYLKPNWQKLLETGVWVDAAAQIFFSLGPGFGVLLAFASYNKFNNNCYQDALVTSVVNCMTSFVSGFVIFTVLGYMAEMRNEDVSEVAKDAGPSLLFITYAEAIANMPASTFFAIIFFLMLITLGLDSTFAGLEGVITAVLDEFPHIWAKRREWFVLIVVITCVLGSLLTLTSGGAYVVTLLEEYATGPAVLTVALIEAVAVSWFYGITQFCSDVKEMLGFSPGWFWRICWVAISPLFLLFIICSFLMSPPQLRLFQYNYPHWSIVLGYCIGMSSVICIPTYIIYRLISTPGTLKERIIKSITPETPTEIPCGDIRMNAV

| SMILES | DA Uptake Emax [3] [% I] | EC50 [3] [nM] | other results |
| --- | --- | --- | --- |
| COC(=O)[C@H]1[C@@H](OC(=O)c2ccccc2)C[C@@H]2CC[C@H]1N2C [Cocaine, reference compound] |  |  | SERT Uptake Emax [1]: 98 ± 2%; NET Uptake Emax [2]: 102 ± 2% |
| Cc1cc(NS(C)(=O)=O)ccc1-c1nc(NCC(c2ccncc2)c2ccncc2)c2ccccc2n1 [Compound 47, N-(4-(4-((2,2-di(pyridin-4-yl)ethyl)amino)quinazolin-2-yl)-3-methylphenyl)methanesulfonamide] | 67 ± 4 | 84 ± 25 |  |
| CN(C)c1ccc(-c2nc(NCC(c3cccnc3)c3ccc[nH]3)c3ccccc3n2)cc1 (stereo not shown) [Compound 31, 2-(4-(dimethylamino)phenyl)-N-(2-(pyridin-3-yl)-2-(1H-pyrrol-2-yl)ethyl)quinazolin-4-amine] | 85 ± 4 | 47 ± 12 |  |
| CS(=O)(=O)Nc1ccc(-c2nc(NCC(c3ccccc3)c3ccc[nH]3)c3ccccc3n2)cc1 (stereo not shown) [Compound 15, N-(4-(4-((2-phenyl-2-(1H-pyrrol-2-yl)ethyl)amino)quinazolin-2-yl)phenyl)methanesulfonamide] | 63 ± 2 | 43 ± 8 |  |
| CN(C)c1ccc(-c2nc(NCCc3ccccc3)c3ccccc3n2)cc1 [Compound 36, 2-(4-(dimethylamino)phenyl)-N-phenethylquinazolin-4-amine] | 100 ± 1 | 156 ± 12 | Efficacy of [3H]DA (DAT) uptake inhibition, in words [3]: fully inhibits; also recorded: full-efficacy; One-Site Emax [3]: 100 ± 1.5 % I; Two-Site Emax-1 [3]: 76 ± 54 % I; Two-Site Emax-2 [3]: 27 ± 53 % I |
| CC(C)C(CNc1nc(-c2ccc(NS(C)(=O)=O)cc2)nc2ccccc12)c1ccccc1 (stereo not shown) [Compound 45, N-(4-(4-((3-methyl-2-phenylbutyl)amino)quinazolin-2-yl)phenyl)methanesulfonamide] | 78 ± 4 | 20 ± 6 |  |
| CN(C)c1ccc(-c2nc(NCC(c3ccccc3)C3CCCCC3)c3ccccc3n2)cc1 (stereo not shown) [Compound 7, N-(2-cyclohexyl-2-phenylethyl)-2-(4-(dimethylamino)phenyl)quinazolin-4-amine] | 71 ± 3 | 46 ± 10 |  |
| CN(C)c1ccc(-c2nc(NCC(c3ccccc3)N3CCOCC3)c3ccccc3n2)cc1 (stereo not shown) [Compound 18, 2-(4-(dimethylamino)phenyl)-N-(2-morpholino-2-phenylethyl)quinazolin-4-amine] | 75 ± 5 | 15 ± 7 | Efficacy of [3H]DA (DAT) uptake inhibition, in words [3]: partially inhibits; One-Site Emax [3]: 75 ± 5 % I; Two-Site Emax-1 [3]: 57 ± 2 % I; Two-Site Emax-2 [3]: 42 ± 4 % I |
| CS(=O)(=O)Nc1ccc(-c2nc(NCC(c3cccnc3)c3ccc[nH]3)c3ccccc3n2)cc1 (stereo not shown) [Compound 30, N-(4-(4-((2-(pyridin-3-yl)-2-(1H-pyrrol-2-yl)ethyl)amino)quinazolin-2-yl)phenyl)methanesulfonamide] | 79 ± 3 | 202 ± 42 |  |
| CN(C)c1ccc(-c2nc(NCC(Oc3ccccc3)c3ccccc3)c3ccccc3n2)cc1 (stereo not shown) [Compound 48, 2-(4-(dimethylamino)phenyl)-N-(2-phenoxy-2-phenylethyl)quinazolin-4-amine] | 72 ± 3 | 42 ± 10 |  |
| CN(C)c1ccc(-c2nc(NCC(c3ccccc3)c3ccncc3)c3ccccc3n2)cc1 (stereo not shown) [Compound 11, 2-(4-(Dimethylamino)phenyl)-N-(2-phenyl-2-(pyridin-4-yl)ethyl)quinazolin-4-amine] | 77 ± 2 | 13 ± 3 |  |
| CN(C)c1ccc(-c2nc(NC(Cc3ccccc3)c3ccccc3)c3ccccc3n2)cc1 (stereo not shown) [Compound 40, 2-(4-(dimethylamino)phenyl)-N-(1,2-diphenylethyl)quinazolin-4-amine] | 72 ± 2 | 40 ± 8 |  |
| CN(C)c1ccc(-c2nc(NCC(c3ccccn3)c3ccc[nH]3)c3ccccc3n2)cc1 (stereo not shown) [Compound 33, 2-(4-(dimethylamino)phenyl)-N-(2-(pyridin-2-yl)-2-(1H-pyrrol-2-yl)ethyl)quinazolin-4-amine] | 89 ± 4 | 65 ± 18 |  |
| CN(C)c1ccc(-c2nc(NCC(c3ccccc3)N3CCCC3)c3ccccc3n2)cc1 (stereo not shown) [Compound 21, 2-(4-(dimethylamino)phenyl)-N-(2-phenyl-2-(pyrrolidin-1-yl)ethyl)quinazolin-4-amine] | 92 ± 4 | 112 ± 26 |  |
| CN(C)c1ccc(-c2nc(NCC(C)(c3ccccc3)c3ccccc3)c3ccccc3n2)cc1 [Compound 38, 2-(4-(dimethylamino)phenyl)-N-(2,2-diphenylpropyl)quinazolin-4-amine] | 68 ± 3 | 15 ± 4 |  |
| CS(=O)(=O)Nc1ccc(-c2nc(NCC(c3ccccc3)N3CCCCC3)c3ccccc3n2)cc1 (stereo not shown) [Compound 17, N-(4-(4-((2-phenyl-2-(piperidin-1-yl)ethyl)amino)quinazolin-2-yl)phenyl)methanesulfonamide] | 83 ± 5 | 62 ± 20 |  |
| CS(=O)(=O)Nc1ccc(-c2nc(NCC(c3ccccc3)N3CCOCC3)c3ccccc3n2)cc1 (stereo not shown) [Compound 19, N-(4-(4-((2-morpholino-2-phenylethyl)amino)quinazolin-2-yl)phenyl)methanesulfonamide] | 71 ± 4 | 43 ± 13 |  |
| CN1CCN(C(CNc2nc(-c3ccc(NS(C)(=O)=O)cc3)nc3ccccc23)c2ccccc2)CC1 (stereo not shown) [Compound 23, N-(4-(4-((2-(4-methylpiperazin-1-yl)-2-phenylethyl)amino)quinazolin-2-yl)phenyl)methanesulfonamide] | 77 ± 3 | 62 ± 15 |  |
| CN1CCN(C(CNc2nc(-c3ccc(N(C)C)cc3)nc3ccccc23)c2ccccc2)CC1 (stereo not shown) [Compound 22, 2-(4-(dimethylamino)phenyl)-N-(2-(4-methylpiperazin-1-yl)-2-phenylethyl)quinazolin-4-amine] | 91 ± 4 | 30 ± 8 |  |
